Assays:
influenza endonuclease [1] = biological target: T1, influenza endonuclease (Influenza A virus, UniProt P03428+P03433)
influenza endonuclease [2] = biological target: T1, influenza endonuclease; remark: listed apart in the source
influenza endonuclease [3] = biological target: T1, influenza endonuclease; remark: listed apart in the source

Substance: pppG(2′-OMe)UUUUUAUUUUUAAUUUUC-3′ [SEQ.ID.NO.:4]
- Km (influenza endonuclease [1]): 0.4 nM
- site of cleavage by influenza endonuclease (influenza endonuclease [1]): between the two A's at positions 13-14

Substance: pppG(2′-OMe)UAUUAAUA(3′dA)-3′ [SEQ.ID.NO.:21]
- binding of the labeled capped 10-mer competed by unlabeled competitor (influenza endonuclease [2]): 10%

Substance: m^7GpppG(2′-OMe)UAUUAAUA(3′-dA)-3′ [SEQ.ID.NO.:3]
- inhibition of influenza endonuclease (in words) (influenza endonuclease [3]): potent inhibitor of influenza endonuclease
- binding of the labeled capped 10-mer displaced by competition with unlabeled competitor (influenza endonuclease [2]): 95%
- saturation amplitude (influenza endonuclease [2]): 5.2 nM
